{
  "source": "paper PMC6104039",
  "about": "(Nature Communications, 2018)",
  "key": {"SkM [1]": {"tested_on": "SkM", "assay": "Lipidomic profiling of skeletal muscle (quadriceps) of mice on chow or HFD", "assay_type": "in vivo", "text": "Male C57BL6/J mice were obtained from the Animal Resources Centre in Perth (WA, Australia). […] Treatment was commenced at the same time as mice were randomised to dietary groups. The experiments were approved by the UNSW animal care and ethics committee (ACEC 15/48B), and followed guidelines issued by the National Health and Medical Research Council of Australia.\nLipids were extracted from frozen tissue samples or cells using a two-phase procedure with methyl-tert-butyl ether (MTBE)/methanol/water (10:3:2.5, v/v/v)[67]. Frozen tissue samples (~20 mg) were homogenized in 0.2 mL methanol containing 0.01% butylated hydroxytoluene (BHT), using a Precellys 24 homogenizer and Cryolys cooling unit (Bertin Technologies) with CK14 (1.4-mm ceramic) beads. The homogenates were spiked with an internal standard mixture comprising 5 nmole 19:0/19:0 phosphatidylcholine and 2 nmole each of 17:0/17:0 phosphatidylethanolamine, 17:0/17:0 phosphatidylserine, 17:0/17:0 d5-diacylglycerol, 17:0/17:0 phosphatidylglycerol, 14:0/14:0/14:0/14:0 cardiolipin, 18:1/12:0 SM, 18:1/17:0 ceramide, 18:1/12:0 glucosylceramide, 18:1/12:0 lactosylceramide, 18:1/12:0 sulfatide (all from Avanti Polar Lipids, USA), and 17:0/17:0/17:0 TAG (Cayman Chemical, USA), then transferred to 10 mL screw cap glass tubes. The homogenization tubes containing beads were then washed with another 0.3 mL methanol, and this wash was combined with the first methanol extract, after which 1.7 mL MTBE was added and the samples were sonicated in an ice-cold sonicating water bath (Thermoline Scientific, Australia) for 30 min. Phase separation was induced by addition of 417 µL of mass spectrometry-grade water followed by vortexing and centrifugation at 1000 × g for 10 min. The upper organic phase was collected into 5 mL glass tubes. The lower phase was re-extracted by adding 1 mL MTBE, 300 μL methanol, and 250 μL water. The organic phases were combined in the 5 mL glass tubes and dried under vacuum in a Savant SC210 SpeedVac (Thermo Scientific), then reconstituted in 500 μL methanol and stored at −20 °C until analysis.\nLipidomic profiling was performed on a QExactive Plus mass spectrometer with heated electrospray ionization (HESI) probe and a Dionex UltiMate 2000 LC pump (Thermo Fisher Scientific). Extracts were resolved on a 2.1 × 100 mm Waters Acquity C18 UPLC column (1.7 µm […]), using a binary gradient in which mobile phase A consisted of acetonitrile:water (60:40), 10 mM ammonium formate, 0.1% formic acid; and mobile phase B was isopropanol:acetonitrile (90:10), 10 mM ammonium formate, 0.1% formic acid[68]. The flow rate was 260 µL/min and column oven 55 °C. Data was acquired in full scan/data-dependent MS^2 mode (full scan resolution 70,000 FWHM, scan range 400–1200 m/z). The ten most abundant ions in each cycle were subjected to MS^2 using an isolation window of 1.4 m/z, collision energy 30 eV, resolution 17,500, maximum integration time 110 ms and dynamic exclusion window 10 s. An exclusion list of background ions was used based on a solvent blank. LipidSearch v4.1.30 software (ThermoFisher Scientific) was used for chromatogram alignment, peak identification and integration. Each lipid peak was manually verified for column elution time and characteristic fragment ions. Data were then exported to an Excel spreadsheet for normalisation of each lipid to its class-specific internal standard, and lipid concentrations were calculated relative to the internal standard.\nData were log transformed, then subjected to two-tailed t-tests adjusted for multiple comparisons using GraphPad PRISM (Benjamini, Krieger and Yekutieli correction, Q = 1%)."}, "SkM [2]": {"tested_on": "SkM", "assay": "Real-time PCR of respiratory complex subunits and regulators of mitochondrial biogenesis in SkM", "assay_type": "in vivo, mice", "protocol": "PCR (40 cycles) was performed on a LightCycler 480 (Roche) using SensiFAST SYBR mastermix (Bioline). For quantification of CerS1 and CerS2 expression, total RNA was purified from mouse tissues with TRIzol reagent (Sigma-Aldrich), followed by DNase treatment (Promega), and reverse transcribed using random hexamer primers with FirstStrand cDNA synthesis kit (Roche), according to manufacturer’s instructions. CerS1 and CerS2 gene expression was determined using a standard curve of Ct against input cDNA, and normalised to 18s RNA. For mitochondrial genes and transcriptional regulators in SkM, total RNA was prepared with TRIzol, and oligo dT primer was used for reverse transcription. Relative gene expression was determined using the ΔΔCt method, with 36B4 and Rpl13 as the reference genes. Samples with excessively high Ct values (Ct > 30 for the housekeeping genes) were removed from data analysis (two samples for Fig. 6a, four samples for Fig. 6g). Gene-specific primers were as follows: […]"}, "cortical neuron cultures": {"tested_on": "cortical neuron cultures", "assay": "Live-cell ceramide synthase assay: deuterated ceramide from D7-dihydrosphingosine", "conditions": "two hour pre-treatment", "method": "Mouse cortical neurons were prepared from E16 pups[65] and seeded at 5 × 10^6 cells/well in poly-D-lysine coated six-well plates. Two weeks after seeding, neurons were pre-treated for 2 h with P053, then incubated for a further 1 h with 1 μM deuterated dihydrosphingosine (D7-dhSph). Lipid extraction and quantification of D7-ceramide using liquid chromatography-tandem mass spectrometry (LC-MS/MS)[34] is described below.\nTargeted quantification of ceramide, HexCer, and SM species in primary neurons, HEK293 cells, mouse brain, and gastrocnemius muscle lipid extracts was performed by LC-MS/MS on a TSQ Access triple quadrupole mass spectrometer (Thermo Fisher Scientific)[69]. Lipids were separated on a 3 × 150 mm Agilent XDB-C8 column (5 μM pore size) with a 10 min isocratic chromatography run using methanol containing 0.2% formic acid as the mobile phase. Precursor ions were the precise [M + H] species for each lipid. […] Deuterated (D7) ceramides were detected as the corresponding m/z + 7 ions."}, "[3]": {"conditions": "Muscle lipidomic data, Chow Vehicle vs Chow P053, Mean1 minus Mean2"}, "[4]": {"conditions": "Muscle lipidomic data, Chow Vehicle vs Chow P053, Mean2 = Chow P053 group"}, "[5]": {"conditions": "Muscle lipidomic data, HFD Vehicle vs HFD P053, Mean1 minus Mean2"}, "[6]": {"conditions": "Muscle lipidomic data, HFD Vehicle vs HFD P053, Mean2 = HFD P053 group"}},
  "note": "Values joined by “and” are separate entries in the source; they are usually repeats but may differ in a detail not shown here. Identical values can stand only once. “Also recorded” adds a separate entry of the source.",
  "data": [
    {"smiles": "C[C@@](N)(CO)CCc1ccc(OCc2ccc(Cl)c(Cl)c2)cc1", "note": "[P053, (S)-2-amino-4-(4-(3,4-dichlorobenzyloxy)phenyl)-2-methylbutan-1-ol]", "values": [
      {"measurement": "SM 36:2 content of skeletal muscle", "setting": "SkM [1]; HFD + P053, individual mice", "result": "2.88 and 7.47 and 1.66 and 1.87 and 1.75 and 5.22 and 2.66 and 6.56 and 8.38 and 7.06 and 6.58 and 7.04 and 4.61 and 3.90 and 3.95 and 6.89 and 4.71 and 5.16 and 4.33"},
      {"measurement": "SM 38:1 content of skeletal muscle", "setting": "SkM [1]; HFD + P053, individual mice", "result": "11.48 and 13.05 and 11.02 and 10.80 and 17.24 and 10.17 and 15.13 and 9.50 and 12.28 and 0.77 (2×) and 0.82 and 1.11 and 0.80 and 0.71 (2×) and 0.68 and 0.83 and 0.73"},
      {"measurement": "SM 40:1 content of skeletal muscle", "setting": "SkM [1]; HFD + P053, individual mice", "result": "27.34 and 27.26 and 26.32 and 23.00 and 31.62 and 23.79 and 31.23 and 22.04 and 24.26 and 29.13 and 27.02 and 34.08 and 33.01 and 18.95 and 25.13 and 25.49 and 34.47 and 24.05 and 33.50"},
      {"measurement": "SM 40:2 content of skeletal muscle", "setting": "SkM [1]; HFD + P053, individual mice", "result": "1.78 and 2.91 (2×) and 1.98 and 2.11 and 2.83 and 1.89 and 2.53 and 1.77 and 2.29 and 2.59 and 3.38 and 2.49 and 1.96 and 2.67 and 2.64 and 2.84 and 2.34 and 2.94"},
      {"measurement": "SM 42:1 content of skeletal muscle", "setting": "SkM [1]; HFD + P053, individual mice", "result": "15.46 and 16.53 and 18.68 and 19.65 and 22.92 and 14.56 and 23.18 and 14.90 and 18.70 and 19.26 and 17.69 and 25.18 and 22.26 and 12.72 and 19.43 and 19.06 and 23.08 and 18.56 and 31.22"},
      {"measurement": "SM 42:2 content of skeletal muscle", "setting": "SkM [1]; HFD + P053, individual mice", "result": "53.70 and 57.56 and 54.97 and 42.97 and 63.03 and 48.46 and 60.01 and 50.89 and 52.69 and 51.87 and 48.15 and 70.42 and 61.77 and 37.14 and 54.20 and 54.85 and 64.93 and 49.70 and 71.83"},
      {"measurement": "SM 42:3 content of skeletal muscle", "setting": "SkM [1]; HFD + P053, individual mice", "result": "9.08 and 11.26 and 8.06 and 8.54 and 12.73 and 9.01 and 12.20 and 10.73 and 15.91 and 12.10 and 11.91 and 13.64 and 11.55 and 7.81 and 10.86 and 9.89 and 12.79 and 9.17 and 13.47"},
      {"measurement": "reduction of most triacylglycerol (TAG) species in SkM", "setting": "SkM [1]; HFD + P053 compared to HFD + vehicle", "result": "more than 50%"},
      {"measurement": "Cer(d18:1/18:0)+H, Difference", "setting": "SkM [1]; [3]", "result": 0.4848},
      {"measurement": "Cer(d18:2/18:0)+H, Difference", "setting": "SkM [1]; [3]", "result": 0.6042},
      {"measurement": "Cer(d18:1/18:0)+H, Mean2", "setting": "SkM [1]; [4]", "result": 2.896},
      {"measurement": "Cer(d18:2/18:0)+H, Mean2", "setting": "SkM [1]; [4]", "result": 0.4179},
      {"measurement": "Cer(d18:1/18:0)+H, Difference", "setting": "SkM [1]; [5]", "result": 0.7206},
      {"measurement": "Cer(d18:1/22:0)+H, Difference", "setting": "SkM [1]; [5]", "result": -0.3135},
      {"measurement": "Cer(d18:1/24:0)+H, Difference", "setting": "SkM [1]; [5]", "result": -0.4027},
      {"measurement": "Cer(d18:1/24:1)+H, Difference", "setting": "SkM [1]; [5]", "result": -0.3555},
      {"measurement": "Cer(d18:2/18:0)+H, Difference", "setting": "SkM [1]; [5]", "result": 0.8901},
      {"measurement": "SM(d41:1)+H, Difference", "setting": "SkM [1]; [5]", "result": -0.3059},
      {"measurement": "SM(d42:2)+H, Difference", "setting": "SkM [1]; [5]", "result": -0.2817},
      {"measurement": "Cer(d18:1/18:0)+H, Mean2", "setting": "SkM [1]; [6]", "result": 2.811},
      {"measurement": "Cer(d18:1/22:0)+H, Mean2", "setting": "SkM [1]; [6]", "result": 0.3563},
      {"measurement": "Cer(d18:1/24:0)+H, Mean2", "setting": "SkM [1]; [6]", "result": 0.4756},
      {"measurement": "Cer(d18:1/24:1)+H, Mean2", "setting": "SkM [1]; [6]", "result": 1.172},
      {"measurement": "Cer(d18:2/18:0)+H, Mean2", "setting": "SkM [1]; [6]", "result": 0.1066},
      {"measurement": "SM(d41:1)+H, Mean2", "setting": "SkM [1]; [6]", "result": 1.941},
      {"measurement": "SM(d42:2)+H, Mean2", "setting": "SkM [1]; [6]", "result": 3.999},
      {"measurement": "DG levels in SkM", "setting": "SkM [1]; chow or HFD", "result": "does not affect; also recorded: unaffected"},
      {"measurement": "SkM TAG levels", "setting": "SkM [1]; normal chow", "result": "did not affect"},
      {"measurement": "C18 ceramide levels in SkM", "setting": "SkM [1]; pilot study, 7 days, 1 mg/kg/day", "result": "no effect"},
      {"measurement": "reduction of C18 ceramide levels in SkM", "setting": "SkM [1]; pilot study, 7 days, 5 mg/kg/day", "result": 31, "unit": "%"},
      {"measurement": "expression of Gabp1α and Nfe2l2", "setting": "SkM [2]", "result": "significantly increased"},
      {"measurement": "genes encoding respiratory complex subunits (Co-2, Cytb, Atp6, Ndufb5, Atp5o, Cycs, Cox5b)", "setting": "SkM [2]", "result": "significant up-regulation"},
      {"measurement": "de novo C18:0 ceramide synthesis from deuterated dihydrosphingosine", "setting": "cortical neuron cultures", "result": "dose-dependent inhibition"}
    ]}
  ]
}
